Laboratory results: ChEMBL document CHEMBL4052617, “Antibacterial activity of N-methylbenzofuro[3,2-b]quinoline and N-methylbenzoindolo[3,2-b]-quinoline derivatives and study of their mode of action” (2017)
≈ marks a conversion by molar mass, not a printed value.

Experiments:
Type in all cases: functional
Escherichia coli [1] = assay: Antibacterial activity against Escherichia coli ATCC […] expressing NDM-1 beta-lactamase after 18 hrs by Mueller-Hinton broth microdilution method
Pseudomonas aeruginosa = assay: Antibacterial activity against multidrug-resistant Pseudomonas aeruginosa ATCC BAA2108 after 18 hrs by Mueller-Hinton broth microdilution method; conditions: ATCC BAA2108, 18 h
Staphylococcus aureus [2] = assay: Antibacterial activity against Staphylococcus aureus ATCC 29213 after 18 hrs by cation adjusted Mueller-Hinton broth microdilution method; conditions: ATCC 29213, 18 h
Enterococcus faecium [3] = assay: Antibacterial activity against vancomycin-resistant Enterococcus faecium ATCC 700221 after 18 hrs by brain heart infusion broth microdilution method; conditions: ATCC 700221, 18 h
Enterococcus faecium [4] = assay: Antibacterial activity against antibiotic-susceptile Enterococcus faecium ATCC 49624 after 18 hrs by brain heart infusion broth microdilution method; conditions: ATCC 49624, 18 h
Escherichia coli [5] = assay: Antibacterial activity against Escherichia coli ATCC 25922 after 18 hrs by Mueller-Hinton broth microdilution method; conditions: ATCC 25922, 18 h
Staphylococcus aureus [6] = assay: Antibacterial activity against methicillin-resistant Staphylococcus aureus ATCC BAA41 after 18 hrs by cation adjusted Mueller-Hinton broth microdilution method; conditions: ATCC BAA41, 18 h
Bacillus subtilis = assay: Antibacterial activity against Bacillus subtilis 168 after 18 hrs by Mueller-Hinton broth microdilution method; conditions: subsp. subtilis str. 168, 18 h
Klebsiella pneumoniae = assay: Antibacterial activity against Klebsiella pneumoniae ATCC BAA2470 expressing NDM-1 beta-lactamase after 18 hrs by Mueller-Hinton broth microdilution method; conditions: ATCC BAA2470, 18 h

| Structure (SMILES) | MIC (Escherichia coli [1]) [µg/mL] | MIC (Pseudomonas aeruginosa) [µg/mL] | MIC (Staphylococcus aureus [2]) [µg/mL] | MIC (Enterococcus faecium [3]) [µg/mL] | MIC (Enterococcus faecium [4]) [µg/mL] | MIC (Escherichia coli [5]) [µg/mL] | MIC (Staphylococcus aureus [6]) [µg/mL] | MIC (Bacillus subtilis) [µg/mL] | MIC (Klebsiella pneumoniae) [µg/mL] |
| --- | --- | --- | --- | --- | --- | --- | --- | --- | --- |
| Cc1cc(F)ccc1Nc1c2ccccc2[n+](C)c2c1[nH]c1ccccc12.[I-] | 8 | 64 | 4 | 8 | 8 | 8 | 4 | 4 | 64 |
| Cc1cc(C)cc(Nc2c3ccccc3[n+](C)c3c2oc2ccccc23)c1.[I-] | 12 | > 64 | 6 | 8 | 8 | 12 | 6 | 6 | > 64 |
| C[n+]1c2ccccc2c(Nc2ccc(OC(F)(F)F)cc2)c2[nH]c3ccccc3c21.[I-] | 6 | 48 | 2 | 4 | 4 | 6 | 2 | 2 | 48 |
| CCOc1ccccc1Nc1c2ccccc2[n+](C)c2c1[nH]c1ccccc12.[I-] | 8 | 64 | 4 | 6 | 6 | 8 | 4 | 4 | 64 |
| C[n+]1c2ccccc2c(Nc2ccc(OC(F)(F)F)cc2)c2oc3ccccc3c21.[I-] | 8 | 64 | 4 | 6 | 6 | 8 | 4 | 4 | 64 |
| CCc1ccc(Nc2c3ccccc3[n+](C)c3c2[nH]c2ccccc23)cc1.[I-] | 8 | 64 | 4 | 6 | 6 | 8 | 4 | 4 | 64 |
| C[n+]1c2ccccc2c(Nc2cccc(F)c2)c2oc3ccccc3c21.[I-] | 16 | > 64 | 8 | 12 | 12 | 16 | 8 | 8 | > 64 |
| CCOc1ccc(Nc2c3ccccc3[n+](C)c3c2oc2ccccc23)cc1.[I-] | 8 | 64 | 4 | 8 | 8 | 8 | 4 | 4 | 64 |
| COc1cccc(Nc2c3ccccc3[n+](C)c3c2oc2ccccc23)c1.[I-] | 12 | > 64 | 6 | 8 | 8 | 12 | 6 | 6 | > 64 |
| Cc1ccc(Nc2c3ccccc3[n+](C)c3c2oc2ccccc23)cc1F.[I-] | 12 | > 64 | 6 | 8 | 8 | 12 | 6 | 6 | > 64 |
| COc1ccccc1Nc1c2ccccc2[n+](C)c2c1[nH]c1ccccc12.[I-] | 8 | 64 | 4 | 8 | 8 | 8 | 4 | 4 | 64 |
| Cc1cc(F)ccc1Nc1c2ccccc2[n+](C)c2c1oc1ccccc12.[I-] | 12 | > 64 | 6 | 8 | 8 | 12 | 6 | 6 | > 64 |
| CN[C@H](CC(C)C)C(=O)N[C@H]1C(=O)N[C@@H](CC(N)=O)C(=O)N[C@H]2C(=O)N[C@H]3C(=O)N[C@H](C(=O)N[C@H](C(=O)O)c4cc(O)cc(O)c4-c4cc3ccc4O)[C@H](O)c3ccc(c(Cl)c3)Oc3cc2cc(c3O[C@@H]2O[C@H](CO)[C@@H](O)[C@H](O)[C@H]2O[C@H]2C[C@](C)(N)[C@H](O)[C@H](C)O2)Oc2ccc(cc2Cl)[C@H]1O [VANCOMYCIN] | 6 (≈ 4.14 µM) | > 64 |  | > 64 |  | 2 (≈ 1.38 µM) |  | 1 (≈ 0.69 µM) | > 64 |
| CCc1ccc(Nc2c3ccccc3[n+](C)c3c2oc2ccccc23)cc1.[I-] | 12 | > 64 | 6 | 8 | 8 | 12 | 6 | 6 | > 64 |
| C[n+]1c2ccccc2c(Nc2ccccc2)c2[nH]c3ccccc3c21.[I-] | 12 | > 64 | 6 | 8 | 8 | 12 | 6 | 6 | > 64 |
| C[n+]1c2ccccc2c(Nc2ccc(F)cc2)c2[nH]c3ccccc3c21.[I-] | 8 | 64 | 4 | 8 | 8 | 8 | 4 | 4 | 64 |
| COc1cccc(Nc2c3ccccc3[n+](C)c3c2[nH]c2ccccc23)c1.[I-] | 8 | > 64 | 4 | 8 | 8 | 8 | 4 | 4 | > 64 |
| Cc1ccc(Nc2c3ccccc3[n+](C)c3c2[nH]c2ccccc23)cc1.[I-] | 8 | 64 | 4 | 6 | 6 | 8 | 4 | 4 | 64 |
| Cc1ccc(Nc2c3ccccc3[n+](C)c3c2oc2ccccc23)cc1C.[I-] | 12 | > 64 | 6 | 8 | 8 | 12 | 6 | 6 | > 64 |
| C[n+]1c2ccccc2c(Nc2ccc(F)cc2F)c2[nH]c3ccccc3c21.[I-] | 8 | 64 | 4 | 8 | 8 | 8 | 4 | 4 | 64 |
| COc1ccccc1Nc1c2ccccc2[n+](C)c2c1oc1ccccc12.[I-] | 12 | > 64 | 6 | 8 | 8 | 12 | 6 | 6 | > 64 |
| COc1cccc(OC)c1C(=O)N[C@@H]1C(=O)N2[C@@H]1SC(C)(C)[C@@H]2C(=O)O [METHICILLIN] | > 192 | > 192 | 1 (≈ 2.63 µM) |  |  | 4 (≈ 10.5 µM) | > 192 | 0.5 (≈ 1.31 µM) | > 192 |
